# According to ChEMBL document CHEMBL4431320 (J Med Chem, 2016):
# The source made the active and inactive calls. The calls are words filed in the database; no cut-off is given here.
# Legend:
# [1] = target: Acetylcholinesterase (Electrophorus electricus) (UniProt O42275); test: Inhibition of electric eel AChE at 10 uM using ACTI as substrate preincubated for 29 mins followed by substrate addition measured at 1 min intervals for 10 mins by Ellman's assay
# [2] = target: Cholinesterase (Equus caballus) (UniProt P81908); test: Inhibition of equine BuChE at 10 uM using ACTI as substrate preincubated for 29 mins followed by substrate addition measured at 1 min intervals for 10 mins by Ellman's assay
# Cholinesterase [3] = target: Cholinesterase (Equus caballus, UniProt P81908)
# Description: Inhibition of equine BuChE using ACTI as substrate preincubated for 29 mins followed by substrate addition measured at 1 min intervals for 10 mins by Ellman's assay
# [4] = target: Acetylcholinesterase (Homo sapiens) (UniProt P22303); test: Inhibition of human AChE at 10 uM using ACTI as substrate incubated for 40 mins measured at 1 min intervals for 10 mins by Ellman's assay
# [5] = Stability of compound in crystallization buffer at pH 7.4 at 0.1 mg/mL incubated for 24 hrs by RP-HPLC analysis in presence of equine BuChE; assay type: physicochemical; details: pH 7.4, 24 h
# [6] = Selectivity ratio of IC50 for equine BuChE to IC50 for human BuChE
# SH-SY5Y = test: Cytotoxicity against human SH-SY5Y cells at 0.5 to 10 uM after 48 hrs by MTT assay; assay type: cell-based
# [7] = Permeability of compound at 10 uM after 4 hrs by PAMPA; assay type: ADME; details: read-out: permeability
# [8] = Stability of compound in crystallization buffer at pH 7.4 at 0.1 mg/mL incubated for 24 hrs by RP-HPLC analysis; assay type: physicochemical; details: pH 7.4, 24 h
# Cholinesterase [9] = target: Cholinesterase (Homo sapiens, UniProt P06276)
# Chain of Cholinesterase (Homo sapiens, UniProt P06276) (P06276 whole entry): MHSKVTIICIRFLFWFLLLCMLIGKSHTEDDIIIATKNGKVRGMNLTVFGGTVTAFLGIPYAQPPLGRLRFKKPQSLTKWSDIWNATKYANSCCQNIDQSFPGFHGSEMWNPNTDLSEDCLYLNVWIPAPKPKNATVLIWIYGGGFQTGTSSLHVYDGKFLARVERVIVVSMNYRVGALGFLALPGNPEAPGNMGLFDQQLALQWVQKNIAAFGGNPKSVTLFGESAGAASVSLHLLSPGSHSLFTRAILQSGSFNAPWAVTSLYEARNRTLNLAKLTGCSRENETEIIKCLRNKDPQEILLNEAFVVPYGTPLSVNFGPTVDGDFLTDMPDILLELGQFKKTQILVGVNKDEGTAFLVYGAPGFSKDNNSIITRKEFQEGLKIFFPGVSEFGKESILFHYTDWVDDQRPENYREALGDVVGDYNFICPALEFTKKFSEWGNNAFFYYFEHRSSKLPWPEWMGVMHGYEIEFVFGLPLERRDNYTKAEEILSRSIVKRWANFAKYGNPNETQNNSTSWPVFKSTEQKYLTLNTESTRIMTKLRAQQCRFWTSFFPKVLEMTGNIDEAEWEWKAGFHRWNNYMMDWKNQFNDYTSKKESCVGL
# Description: Inhibition of human BuChE using ACTI as substrate incubated for 40 mins measured at 1 min intervals for 10 mins by Ellman's assay
# Chain of Cholinesterase (Equus caballus) (P81908 whole entry): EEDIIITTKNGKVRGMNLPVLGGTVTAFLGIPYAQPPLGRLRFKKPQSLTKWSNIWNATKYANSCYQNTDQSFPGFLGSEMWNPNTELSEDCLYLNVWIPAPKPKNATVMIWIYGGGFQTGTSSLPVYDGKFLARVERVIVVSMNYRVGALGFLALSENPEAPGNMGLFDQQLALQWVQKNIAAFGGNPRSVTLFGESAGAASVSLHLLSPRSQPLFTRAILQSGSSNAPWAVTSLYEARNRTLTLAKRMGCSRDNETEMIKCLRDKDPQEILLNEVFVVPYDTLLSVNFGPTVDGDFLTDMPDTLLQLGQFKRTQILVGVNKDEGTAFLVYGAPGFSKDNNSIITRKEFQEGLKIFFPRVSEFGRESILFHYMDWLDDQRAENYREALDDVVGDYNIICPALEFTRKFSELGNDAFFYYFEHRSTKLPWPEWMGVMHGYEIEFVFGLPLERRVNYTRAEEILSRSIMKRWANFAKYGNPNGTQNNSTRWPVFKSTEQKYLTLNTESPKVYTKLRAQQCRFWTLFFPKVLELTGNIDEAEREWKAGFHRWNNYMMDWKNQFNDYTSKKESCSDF
# Chain of Cholinesterase (Equus caballus, UniProt P81908) (P81908 whole entry): as above
# Chain of Acetylcholinesterase (Electrophorus electricus) (O42275 24-633 limits assumed): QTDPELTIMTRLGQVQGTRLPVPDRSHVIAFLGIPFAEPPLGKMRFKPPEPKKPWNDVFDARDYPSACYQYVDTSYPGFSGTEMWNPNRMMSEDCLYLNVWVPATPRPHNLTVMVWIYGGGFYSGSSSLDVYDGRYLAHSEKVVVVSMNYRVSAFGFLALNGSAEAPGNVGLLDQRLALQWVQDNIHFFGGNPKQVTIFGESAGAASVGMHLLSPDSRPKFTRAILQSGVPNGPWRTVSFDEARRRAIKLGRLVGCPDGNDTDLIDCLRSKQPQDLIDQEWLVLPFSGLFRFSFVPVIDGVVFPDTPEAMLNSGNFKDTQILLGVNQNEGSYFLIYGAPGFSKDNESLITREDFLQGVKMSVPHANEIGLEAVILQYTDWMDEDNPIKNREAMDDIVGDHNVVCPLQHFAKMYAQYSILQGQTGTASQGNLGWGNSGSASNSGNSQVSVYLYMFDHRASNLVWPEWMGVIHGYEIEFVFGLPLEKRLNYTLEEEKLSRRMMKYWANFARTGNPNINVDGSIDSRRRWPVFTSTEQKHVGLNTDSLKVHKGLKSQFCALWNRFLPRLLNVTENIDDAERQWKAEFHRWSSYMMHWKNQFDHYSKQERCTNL
# Chain of Acetylcholinesterase (Homo sapiens) (P22303 whole entry): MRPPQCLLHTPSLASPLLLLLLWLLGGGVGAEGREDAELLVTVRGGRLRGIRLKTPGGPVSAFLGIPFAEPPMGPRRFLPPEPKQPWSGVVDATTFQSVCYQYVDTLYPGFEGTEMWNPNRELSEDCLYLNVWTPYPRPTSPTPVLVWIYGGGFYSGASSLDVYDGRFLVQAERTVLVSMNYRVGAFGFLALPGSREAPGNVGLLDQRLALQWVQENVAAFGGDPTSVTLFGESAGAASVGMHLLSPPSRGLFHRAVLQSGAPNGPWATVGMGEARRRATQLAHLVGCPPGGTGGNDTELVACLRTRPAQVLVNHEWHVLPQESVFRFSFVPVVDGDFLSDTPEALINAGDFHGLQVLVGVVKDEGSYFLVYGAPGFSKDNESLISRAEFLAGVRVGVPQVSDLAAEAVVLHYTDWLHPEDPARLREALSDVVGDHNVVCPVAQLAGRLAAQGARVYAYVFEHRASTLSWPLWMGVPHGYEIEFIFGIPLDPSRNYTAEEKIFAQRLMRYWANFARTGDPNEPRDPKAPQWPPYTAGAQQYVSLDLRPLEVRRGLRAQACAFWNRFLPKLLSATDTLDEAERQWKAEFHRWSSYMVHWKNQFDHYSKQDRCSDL
structure (smiles),measurement,setting,value
COc1ccccc1NC(=O)Cn1c(CCC(=O)O)ccc1-c1ccccc1,inhibition,[1],2.2%
same,inhibition,[2],5.54%
CCCCSc1nc2c(c(=O)[nH]c(=O)n2C)n1C[C@@H](O)COc1cccc2ccccc12,inhibition,[1],5.34%
same,inhibition,[2],3.69%
Cc1cccc(C2(O)CCN(Cc3c(-c4cccs4)[nH]c4ncccc34)CC2)c1,inhibition,[1],2.14%
same,IC50,Cholinesterase [3],48.9 µM
same,inhibition,[2],16.2%
O=C(O)[C@H](Cc1c[nH]c2ccccc12)Nc1ncnc2c1oc1ccccc12,inhibition,[1],1.45%
same,inhibition,[2],7.18%
Cc1cc2nc([C@@H]3CCCN3C(=O)[C@H]3C[C@@H](O)CN3Cc3ccccc3)[nH]c2cc1C,inhibition,[1],inactive
same,IC50,Cholinesterase [3],46.8 µM
same,inhibition,[2],17.5%
CCn1c2ccccc2c2cc(C3C(C(=O)OCC4CCCO4)=C(C)NC4=C3C(=O)CCC4)ccc21 (stereo unspecified),inhibition,[4],inactive
same,inhibition,[1],1.73%
same,IC50,Cholinesterase [3],0.763 µM
same,Stability,[5],Stable
same,Ratio IC50,[6],2
same,Activity,SH-SY5Y,Non-Toxic
same,"Papp at 4 h, 10 µM",[7],2.46 ×10⁻⁶ cm/s
same,Stability,[8],Stable
same,inhibition,[2],84.2%
same,IC50,Cholinesterase [9],0.443 µM
CCSCCOC(=O)C1=C(C)NC2=C(C(=O)CCC2)C1c1ccc2c(c1)c1ccccc1n2CC (stereo unspecified),inhibition,[2],51.2%
CCn1c2ccccc2c2cc([C@@H]3C(C(=O)OCCOC)=C(C)NC4=C3C(=O)CCC4)ccc21,inhibition,[1],1.35%
same,IC50,Cholinesterase [3],9.72 µM
same,inhibition,[2],52.7%
CCn1c2ccccc2c2cc(C3C(C(=O)OC4CCCC4)=C(C)NC4=C3C(=O)CC(C)(C)C4)ccc21 (stereo unspecified),inhibition,[2],2.53%
O=C(Cn1cc(C(=O)C2CC2)c2ccccc21)NCCc1c[nH]c2ccccc12,inhibition,[1],3.44%
same,inhibition,[2],7.28%
Cc1ccccc1-n1nc(C)c(CN(CCN(C)C)Cc2ccccn2)c1C,inhibition,[1],2.46%
same,IC50,Cholinesterase [3],19.2 µM
same,inhibition,[2],31.9%
CCOCCOC(=O)C1=C(C)NC2=C(C(=O)CC(C)(C)C2)C1c1ccc2c(c1)c1ccccc1n2CC (stereo unspecified),inhibition,[2],2.49%
CN(CC(=O)Nc1ccccc1F)S(=O)(=O)c1ccc2ccccc2c1,inhibition,[1],3.43%
same,inhibition,[2],5.64%
CCOC(=O)N1CCN([C@H]2CC(=O)N(c3cccc4ccccc34)C2=O)CC1,inhibition,[1],4.93%
same,inhibition,[2],1.85%
CCCCOC(=O)C1=C(C)NC2=C(C(=O)CCC2)C1c1ccc2c(c1)c1ccccc1n2CC (stereo unspecified),inhibition,[2],53.7%
Cc1cc(C)n(C[C@H](O)CN(Cc2nc3ccccc3[nH]2)Cc2ccco2)n1,inhibition,[1],2.32%
same,inhibition,[2],6.33%
CCC(C)OC(=O)C1=C(C)NC2=C(C(=O)CC(C)(C)C2)C1c1ccc2c(c1)c1ccccc1n2CC (stereo unspecified),inhibition,[2],inactive
O=C(CS[C@@H]1CC(=O)N(c2ccccc2)C1=O)Nc1ccccc1F,inhibition,[1],0.484%
same,inhibition,[2],6.01%
CCn1c2ccccc2c2cc(C3C(C(=O)OC)=C(C)NC4=C3C(=O)CCC4)ccc21 (stereo unspecified),inhibition,[2],49.5%
O[C@H](CN1CCN(c2ccccc2)CC1)c1c[nH]c2ccc(F)cc12,inhibition,[1],2.69%
same,inhibition,[2],1.31%
